The data set can be described thus: Hydrolysis of dilute aqueous insecticide solution (EPA OPPT 835.2130 Hydrolysis as a Function of pH and Temperature). The class given is physicochemical. To be noted: for Bifenthrin remaining: same solution plus 220ppm polymer particles (55% solids vinyl acetate-ethylene copolymer latex, Tg 10° C.). As for the experimental part: In fact, we have made dilute aqueous solutions of Bifenthrin (0.0895 ppm at pH 11.0) in accordance with EPA Fate, Transport and Transformation Test Guidelines OPPT 835.2130 Hydrolysis as a Function of pH and Temperature. After 5 hours at 25° C. only 45% of the insecticide could be detected in the solution and after 15 hours only 12% remained.

Regarding `Cc1c(COC(=O)[C@@H]2[C@H](/C=C(\Cl)C(F)(F)F)C2(C)C)cccc1-c1ccccc1` (racemic) [Bifenthrin], under “0.0895 ppm aqueous solution at pH 11.0, 25° C., after 5 hours, no polymer particles”, the “insecticide detected in the solution” value was determined as 45%. Moreover, the “insecticide remaining in the solution” value (0.0895 ppm aqueous solution at pH 11.0, 25° C., after 15 hours, no polymer particles) was 12%. The Bifenthrin remaining (after 5 hours) amounted to 95% and the Bifenthrin remaining (after 15 hours) is on record as 93%.

(Values after US20140288026A1, “IN[…]” (MAGNA E[…]., priority 2011, published 2014).)
